Reference: patent US20260217699A1, “BERBERINE TAUROURSODEOXYCHOLATE COMPOSITIONS AND METHODS THEREOF” (SHENZHEN HIGHTIDE BIOPHARMACEUTICAL LTD., priority 2023, published 2026)

Tests used:
[1] = tested on: microglia (Iba-1) positive cells; test: Immunofluorescence staining of Iba-1 in Str and SN brain regions; type: in vivo, Sprague-Dawley rats; conditions: Mean ± SEM, N=15; for Iba-1 staining SN positive cells num.: Model 397.8 ± 21.2; for Iba-1 staining Str positive cells num.: Model 668.3 ± 13.0
Method: After the rat was anesthetized, the abdominal cavity and thorax were cut open with straight scissors to expose the heart. The blood was first flushed out with normal saline perfusion, and then paraformaldehyde was used for initial perfusion fixation. The head was cut off, and the brain case was carefully opened with tweezers, and the brain tissue was removed and placed in paraformaldehyde solution and fix for 24 h; on the second day, took out the brain tissue and placed in 20% sucrose solution for 24 h; on the third day, took out the brain tissue and placed in 30% sucrose solution for 24 h; on the fourth day, took out the brain tissue and placed in 35% sucrose solution for 24 h (increase the time or concentration appropriately according to the condition of sugar deposition in the brain tissues); took out the brain tissue, embedded it in OCT embedding agent, and cut brain slices at the thickness of […] with a freezing microtome.
Immunohistochemical staining of TH and Iba-1 was performed on the sections. Sections were rewarmed for 30 min, closed at room temperature for 1 h with 50% serum+0.3% TritonX-100 in 50 μL per slice, shook off the slices, added primary antibody (diluted in PBS), overnight at 4° C.; rewarmed for 30 min; washed off primary antibody (PBS), 5 min×3 times; added secondary antibody (diluted in PBS) by backlighting, room temperature for 2 h; washed off secondary antibody (PBS), 5minx 3 times; added (4′,6-diamidino-2-phenylindole) (DAPI), and stayed at room temperature for 10 min; washed off DAPI, 5 min×3 times; added 70% glycerol to seal the slices to avoid air bubbles. Observed and took pictures under a microscope. Selected basically the same target brain area for each slice. Afterwards, ImageJ was used to count the signal number or area of the entire slice.
Experimental Methods: Seventy 180-220g SD male rats were selected and fed for one week for accumulation, and the PD model was established by stereotactic unilateral injection of 6-OHDA in the Substantia Nigra (SN) and Striatum (Str) regions and were randomly divided into five groups according to their body weights including Madopar group (Madopar, 50 mg/kg), BTUDC-L group (BTUDC, 100 mg/kg), BTUDC-M group (BTUDC, 500 mg/kg), and BTUDC-H group (BTUDC, 1000 mg/kg), with 10 animals in each group. Another 10 SD male rats were taken for sham operation (only 4 μL of 0.9% NS containing 0.02% ascorbic acid was given to the SN and Str brain regions during modeling) as the Sham group. The drug was administered by gavage once daily continuously for 21 days starting on the second day of modeling (first day of dosing, D1). General observation was made during the dosing period. At the end of the administration, the test articles were evaluated for tolerance in this model and in behavioral apomorphine—asymmetric rotation test, beam test, rotarod test and grip strength test, immunofluorescence staining (TH, Ibal), and cerebrospinal fluid inflammatory factor assays to evaluate the pharmacodynamic effects of the test articles. Inflammatory factors tested included interleukin 6 (1L-6), inflammatory factor […], Tumor Necrosis Factor alpha (TNF-α), inflammatory assays were done in a total of 4 groups included Sham, Model, Madopar and BTUDC-H groups.
Dosing volume: 10 mL/kg • 1. General observation: During the period of drug administration, body weight, food intake test and cage side observation were conducted every 3 days. • 2. Behavioral test: After 21 days of administration, behavioral test was carried out on the following day. • 3. […]

[2] = tested on: 6-OHDA Stereotactic Injection Induced PD Rats; test: Apomorphine-asymmetric rotation test; type: in vivo, Sprague-Dawley rats
Source text: The rats were respiratory anesthetized with isoflurane; the head was fixed to ensure that there was no movement and the brain surface was adjusted to be flat; the head was shaved, and a skin incision was made along the sagittal suture to expose the fontanel point; the glass electrode was positioned to the fontanel, and the axes of the coordinate monitor were zeroed to locate the brain areas of the SN and the Str based on the coordinates, in which the SN: AP=−5.0 mm; ML=−1.9 mm; DV=−8.5 mm, and Str: AP=+0.5 mm; ML=−3.0 mm; DV=−6.0 mm. […]; slowly inserted the needle into the localized area of SN and Str, waited for 10 min, and then administered the drug of 6-OHDA at a rate of […] for 10 min, and each animal was given […] of each of SN and Str area, and then the needle was slowly withdrawn after the drug was administered for 10 min, and the PD rat model was established.
The animals were tested three weeks post-administration. 0.5 mg/kg of apomorphine was injected intraperitoneally. The number of rotations of each rat in 30 min were recorded, and the rat appeared to rotate in place toward the opposite side of the injury using the rotating forelimb as a support point. […]
Experimental Methods: Seventy 180-220g SD male rats were selected and fed for one week for accumulation, and the PD model was established by stereotactic unilateral injection of 6-OHDA in the Substantia Nigra (SN) and Striatum (Str) regions and were randomly divided into five groups according to their body weights including Madopar group (Madopar, 50 mg/kg), BTUDC-L group (BTUDC, 100 mg/kg), BTUDC-M group (BTUDC, 500 mg/kg), and BTUDC-H group (BTUDC, 1000 mg/kg), with 10 animals in each group. […] At the end of the administration, the test articles were evaluated for tolerance in this model and in behavioral apomorphine—asymmetric rotation test, beam test, rotarod test and grip strength test, immunofluorescence staining (TH, Ibal), and cerebrospinal fluid inflammatory factor assays to evaluate the pharmacodynamic effects of the test articles. […]

[3] = BTUDC-H 1000 mg/kg p.o. Qd 21 days, p<0.001 vs Model

Structure (SMILES): COc1ccc2cc3[n+](cc2c1OC)CCc1cc2c(cc1-3)OCO2.C[C@H](CCC(=O)NCCS(=O)(=O)[O-])[C@H]1CC[C@H]2[C@@H]3[C@@H](O)C[C@@H]4C[C@H](O)CC[C@]4(C)[C@H]3CC[C@]12C [BTUDC, Berberine tauroursodeoxycholate]
- Iba-1 staining SN positive cells num. [1, 3]: 270.0 ± 21.5
- Iba-1 staining Str positive cells num. [1, 3]: 556.5 ± 16.2
- Iba-1 staining SN positive cells num. ([1]; BTUDC-L 100 mg/kg p.o. Qd 21 days, no significance mark): 413.7 ± 42.8
- Iba-1 staining Str positive cells num. ([1]; BTUDC-L 100 mg/kg p.o. Qd 21 days, p<0.01 vs Model): 601.7 ± 14.2
- Iba-1 staining SN positive cells num. ([1]; BTUDC-M 500 mg/kg p.o. Qd 21 days, no significance mark): 393.1 ± 20.1
- Iba-1 staining Str positive cells num. ([1]; BTUDC-M 500 mg/kg p.o. Qd 21 days, p<0.01 vs Model): 602.7 ± 9.1
- difference in number of ipsilateral rotations within 30 minutes vs Model group ([2]; 500 mg/kg QD p.o. 21 days, p>0.05): no statistically significant difference
- number of rotational circles within 30 min of apomorphine injection vs Model group ([2]; BTUDC-H 1000 mg/kg p.o. Qd 21 days): significantly lower
- Number of Ipsilateral Rotation ([2]; within 30 minutes of apomorphine injection, 500 mg/kg/day p.o. 21 days, 8 rats, Model 126.380 ± 31.681): 109.000 ± 23.670
